Experimental data as given in the supplement of paper PMC5908809.

What was measured:
[1] = tested on: normal primary NK cells, pool 1 (3 donors) (IL-2 2.5 ng/mL); experiment: percent inhibition of viability; higher = more inhibition; conditions: 72 h
YT (IL-2 2.5 ng/mL) [2] = experiment: as above; conditions: 72 h
NK-92 (IL-2 2.5 ng/mL) [3] = experiment: as above; conditions: 72 h
KHYG-1 (IL-2 2.5 ng/mL) [4] = experiment: as above; conditions: 72 h
SNK-6 (IL-2 2.5 ng/mL) [5] = experiment: as above; conditions: 72 h
NKL (IL-2 2.5 ng/mL) [6] = experiment: as above; conditions: 72 h
DERL-7 (IL-2 2.5 ng/mL) [7] = experiment: as above; conditions: 72 h
IMC-1 (IL-2 20 ng/mL) [8] = experiment: as above; conditions: 72 h
[9] = tested on: normal primary NK cells, pool 3 (3 donors) (IL-2 2.5 ng/mL); experiment: as above; conditions: 72 h
NK-YS (IL-2 2.5 ng/mL) [10] = experiment: as above; conditions: 72 h
[11] = tested on: normal primary NK cells, pool 2 (3 donors) (IL-2 2.5 ng/mL); experiment: as above; conditions: 72 h
[12] = tested on: normal primary NK cells, pool 1 (3 donors), resting (IL-2 0 ng/mL); experiment: as above; conditions: 72 h
KAI3 (IL-2 2.5 ng/mL) [13] = experiment: as above; conditions: 72 h
[14] = tested on: normal primary NK cells, pool 1 (3 donors) (IL-2 2.5 ng/mL); experiment: drug sensitivity score (DSS) (DSS units); higher = more sensitive; extreme values may be limits of the assay; conditions: 72 h
YT (IL-2 2.5 ng/mL) [15] = experiment: as above; conditions: 72 h
NK-92 (IL-2 2.5 ng/mL) [16] = experiment: as above; conditions: 72 h
KHYG-1 (IL-2 2.5 ng/mL) [17] = experiment: as above; conditions: 72 h
SNK-6 (IL-2 2.5 ng/mL) [18] = experiment: as above; conditions: 72 h
NKL (IL-2 2.5 ng/mL) [19] = experiment: as above; conditions: 72 h
DERL-7 (IL-2 2.5 ng/mL) [20] = experiment: as above; conditions: 72 h
IMC-1 (IL-2 20 ng/mL) [21] = experiment: as above; conditions: 72 h
[22] = tested on: normal primary NK cells, pool 3 (3 donors) (IL-2 2.5 ng/mL); experiment: as above; conditions: 72 h
NK-YS (IL-2 2.5 ng/mL) [23] = experiment: as above; conditions: 72 h
[24] = tested on: normal primary NK cells, pool 2 (3 donors) (IL-2 2.5 ng/mL); experiment: as above; conditions: 72 h
[25] = tested on: normal primary NK cells, pool 1 (3 donors), resting (IL-2 0 ng/mL); experiment: as above; conditions: 72 h
KAI3 (IL-2 2.5 ng/mL) [26] = experiment: as above; conditions: 72 h
[27] = tested on: normal NK cells expanded with K562-aAPC; experiment: percent inhibition of viability; higher = more inhibition; conditions: 72 h, IL-2 2.5 ng/mL
Description: (§1)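 Drug sensitivity and resistance testing on K562-aAPC-expanded normal NK cells: 5 concentrations (10-fold steps over a 10,000-fold range), 72 h at 37 °C, viability by CellTiter-Glo normalised to DMSO and benzethonium chloride controls; DSS from the fitted curve.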

[28] = tested on: normal NK cells expanded with K562-aAPC; experiment: drug sensitivity score (DSS) (DSS units); higher = more sensitive; extreme values may be limits of the assay; conditions: 72 h; IL-2 2.5 ng/mL
Description: as §1

CS(=O)(=O)OCCCCOS(C)(=O)=O [Busulfan] (max concentration tested 100000 nM)
percent inhibition of viability [%]
Conditions | 10 nM | 100 nM | 1000 nM | 10000 nM | 100000 nM
DERL-7 (IL-2 2.5 ng/mL) [7] | -0.3 | 0.71 | -1.86 | -6.29 | 37.3
IMC-1 (IL-2 20 ng/mL) [8] | -7.58 | 1.98 | -0.95 | 5.86 | 97.7
KAI3 (IL-2 2.5 ng/mL) [13] | -3.8 | 4.61 | -6.45 | 7.92 | 92.1
KHYG-1 (IL-2 2.5 ng/mL) [4] | -5.97 | 2.86 | -2.89 | 5.78 | 101
NK-92 (IL-2 2.5 ng/mL) [3] | -12.9 | 1.55 | 8.88 | -9.97 | 98.6
NK-YS (IL-2 2.5 ng/mL) [10] | -7.3 | -2.96 | -5.68 | 2.67 | 93.2
NKL (IL-2 2.5 ng/mL) [6] | -14.8 | -1.78 | -0.6 | 5.56 | 99.4
SNK-6 (IL-2 2.5 ng/mL) [5] | 6.87 | 18.8 | 18.7 | 29.4 | 98
YT (IL-2 2.5 ng/mL) [2] | -5.22 | 1.87 | -2.46 | -4.04 | 47.7
[1] | 0.77 | -7.48 | -4.93 | -16 | -3.43
[9] | 0.71 | -2.78 | 10.5 | -3.81 | 35.4
[11] | -6.89 | -5.87 | 7.32 | -4.08 | 50.9
[12] | 9.92 | -5.43 | 4.09 | -28.6 | -11.5
[27] | -2.86 | 1.34 | 1.8 | 12.1 | 11.6

Conditions | drug sensitivity score
DERL-7 (IL-2 2.5 ng/mL) [20] | 1.44
IMC-1 (IL-2 20 ng/mL) [21] | 6.28
KAI3 (IL-2 2.5 ng/mL) [26] | 6.36
KHYG-1 (IL-2 2.5 ng/mL) [17] | 6.48
NK-92 (IL-2 2.5 ng/mL) [16] | 4.82
NK-YS (IL-2 2.5 ng/mL) [23] | 5.53
NKL (IL-2 2.5 ng/mL) [19] | 6.32
SNK-6 (IL-2 2.5 ng/mL) [18] | 8.82
YT (IL-2 2.5 ng/mL) [15] | 2.18
[14] | 0
[22] | 1.42
[24] | 2.38
[25] | 0
[28] | 0.67

CC(C)(O)CC(=O)NCCn1ccc2ncnc(Nc3ccc(Oc4cccc(C(F)(F)F)c4)c(Cl)c3)c21 [TAK-285] (max concentration tested 2500 nM)
percent inhibition of viability [%]
Conditions | 0.25 nM | 2.5 nM | 25 nM | 250 nM | 2500 nM
DERL-7 (IL-2 2.5 ng/mL) [7] | 0.57 | -0.5 | -0.21 | -6.99 | 3.24
IMC-1 (IL-2 20 ng/mL) [8] | -2.98 | -2.02 | -5.78 | -4.36 | -2.28
KAI3 (IL-2 2.5 ng/mL) [13] | 3.24 | 6.26 | -7.58 | 2.41 | -4.47
KHYG-1 (IL-2 2.5 ng/mL) [4] | -0.17 | -1.01 | -1.95 | 2.13 | -6.23
NK-92 (IL-2 2.5 ng/mL) [3] | 3.91 | -1.52 | -0.33 | 10.9 | 11.6
NK-YS (IL-2 2.5 ng/mL) [10] | -1.3 | -5.16 | -2.82 | 0.41 | -0.02
NKL (IL-2 2.5 ng/mL) [6] | -13.2 | -11.7 | -12.7 | -16.1 | -29.3
SNK-6 (IL-2 2.5 ng/mL) [5] | 5.49 | 3.7 | -2.84 | -9.96 | -12.5
YT (IL-2 2.5 ng/mL) [2] | 0.86 | -3.2 | 0.37 | 1.42 | -3.68
[1] | -5.45 | -7.93 | -3.5 | -0.56 | 2.32
[9] | -5.51 | -2.63 | -4.05 | -8.03 | -14.8
[11] | -6.38 | -6.44 | -5.09 | -7.05 | -6.29
[12] | -19.2 | -12 | 10 | 5.74 | 6.13
[27] | -3.9 | -5.59 | -4.49 | -4.65 | -10.5

Conditions | drug sensitivity score
DERL-7 (IL-2 2.5 ng/mL) [20] | 0
IMC-1 (IL-2 20 ng/mL) [21] | 0.89
KAI3 (IL-2 2.5 ng/mL) [26] | 0
KHYG-1 (IL-2 2.5 ng/mL) [17] | 0
NK-92 (IL-2 2.5 ng/mL) [16] | 0.37
NK-YS (IL-2 2.5 ng/mL) [23] | 0
NKL (IL-2 2.5 ng/mL) [19] | 0.89
SNK-6 (IL-2 2.5 ng/mL) [18] | 0
YT (IL-2 2.5 ng/mL) [15] | 0
[14] | 0
[22] | 0.89
[24] | 0.89
[25] | 0.01
[28] | 0.89
